Patent US6777418B2, “Retinoid compounds (I)” (Syntex (U.S.A.) LLC, priority 2000, dated 2004)

Experiments:
[1] = target: T1, RAR α (Homo sapiens, UniProt P10276); experiment: Ligand binding assay, retinoid receptors (Apfel et al.), RAR alpha; settings: first value of the cell, read-out: IC50 nM (alpha/beta/gamma): alpha
T1 sequence (P10276 1-462): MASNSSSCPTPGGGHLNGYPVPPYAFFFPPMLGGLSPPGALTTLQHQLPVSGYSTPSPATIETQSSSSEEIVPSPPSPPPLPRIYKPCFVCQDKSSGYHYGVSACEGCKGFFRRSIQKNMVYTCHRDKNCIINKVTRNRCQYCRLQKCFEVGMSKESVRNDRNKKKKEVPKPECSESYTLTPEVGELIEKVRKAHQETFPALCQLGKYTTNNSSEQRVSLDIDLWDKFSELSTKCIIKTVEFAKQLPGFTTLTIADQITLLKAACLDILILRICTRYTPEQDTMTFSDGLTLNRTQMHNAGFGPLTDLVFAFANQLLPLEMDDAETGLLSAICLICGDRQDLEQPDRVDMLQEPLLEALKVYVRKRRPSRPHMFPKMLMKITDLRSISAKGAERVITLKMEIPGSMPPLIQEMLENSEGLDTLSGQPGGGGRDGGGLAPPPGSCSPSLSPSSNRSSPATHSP
Source text: (§1) The retinoic acid receptor agonist selectivity of a compound of the invention may be determined by using ligand binding assays known to the skilled artisan (Apfel et al., Proc. Natl. Acad. Sci., (1992), 89, 7129; Teng et al., J. Med. Chem., (1997), 40, 2445; Bryce et al., U.S. Pat. No. 5,807,900 which are herein incorporated by reference). Treatment with RAR agonists, particularly RAR γ agonists may promote repair of alveolar matrix and septation, which are in important in treating emphysema. Preferably, compounds of the invention are γ selective agonists that bind to the γ receptor with affinities between about 25 nm and about 1000 nm and show a five to ten fold selectivity over binding to the RAR α receptor. It should be noted that RAR agonists that are not γ selective may be effective in treating emphysema. Transactivation, which is the ability of a retinoid to activate gene transcription when gene transcription is initiated by the binding of a ligand to the particular retinoic acid receptor being tested, may be determined by using methods described in the art (Apfel et al., Proc. Natl. Acad. Sci., (1992), 89, 7129; Bernard et al., Biochem. And Biophys. Res. Comm., (1992), 186, 977 which is herein incorporated by reference.
(§2) The RAR α antagonist selectivity of compounds of the invention was determined by the ligand binding assays described in C. Apfel et al. Proc. Nat. Sci. Acad. (USA), 89:7129-7133 (1992).

[2] = target: T2, RAR beta (Homo sapiens, UniProt P10826); experiment: Ligand binding assay, retinoid receptors (Apfel et al.), RAR beta; settings: second value of the cell, read-out: IC50 nM (alpha/beta/gamma): beta
T2 sequence (P10826 1-455): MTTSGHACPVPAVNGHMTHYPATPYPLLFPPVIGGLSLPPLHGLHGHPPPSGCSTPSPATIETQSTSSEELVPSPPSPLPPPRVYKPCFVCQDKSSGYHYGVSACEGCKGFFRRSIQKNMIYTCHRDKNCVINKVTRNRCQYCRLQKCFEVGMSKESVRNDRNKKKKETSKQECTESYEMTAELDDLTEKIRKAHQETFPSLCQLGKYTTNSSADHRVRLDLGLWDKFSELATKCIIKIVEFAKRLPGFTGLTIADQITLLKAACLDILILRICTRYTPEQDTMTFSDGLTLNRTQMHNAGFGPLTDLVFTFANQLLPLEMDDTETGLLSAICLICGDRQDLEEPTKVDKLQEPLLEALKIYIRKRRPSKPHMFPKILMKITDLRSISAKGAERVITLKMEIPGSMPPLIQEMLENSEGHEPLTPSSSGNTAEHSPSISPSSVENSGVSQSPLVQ
Source text: as §1, §2

[3] = target: T3, RAR gamma (Homo sapiens, UniProt P13631); experiment: Ligand binding assay, retinoid receptors (Apfel et al.), RAR gamma; settings: third value of the cell, read-out: IC50 nM (alpha/beta/gamma): gamma
T3 sequence (P13631 1-454): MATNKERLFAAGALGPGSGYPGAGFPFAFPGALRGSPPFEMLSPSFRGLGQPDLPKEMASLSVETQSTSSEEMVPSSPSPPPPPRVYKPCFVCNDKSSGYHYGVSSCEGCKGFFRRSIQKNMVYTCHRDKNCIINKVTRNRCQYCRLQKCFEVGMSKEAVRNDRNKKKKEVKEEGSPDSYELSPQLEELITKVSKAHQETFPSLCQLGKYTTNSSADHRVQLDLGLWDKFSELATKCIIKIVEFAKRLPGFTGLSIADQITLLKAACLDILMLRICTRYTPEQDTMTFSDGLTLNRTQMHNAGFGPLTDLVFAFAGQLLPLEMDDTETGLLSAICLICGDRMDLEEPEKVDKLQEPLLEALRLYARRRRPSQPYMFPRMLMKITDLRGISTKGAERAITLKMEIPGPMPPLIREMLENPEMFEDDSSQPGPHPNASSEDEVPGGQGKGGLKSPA
Source text: as §1, §2

Row | IC50 [1] [nM] | IC50 [2] [nM] | IC50 [3] [nM] | melting point [°C] | Compound
1 | 3600 | 1600 | 1700 | 184.2 to 187.9 | COCc1cc2c(cc1/C=C/c1ccc(C(=O)O)cc1)C(C)(C)CCC2(C)C [Compound 1]
2 | 1000 | 1000 | 1800 |  | CC1(C)CCC(C)(C)c2cc(CO)c(/C=C/c3ccc(C(=O)O)cc3)cc21 [Compound 15]
3 | 950 | 620 | 670 |  | Cc1cnn(Cc2cc3c(cc2/C=C/c2ccc(C(=O)O)cc2)C(C)(C)CCC3(C)C)c1 [Compound 20]

Second part, the compound before the results:

Row | Compound | IC50 [1] [nM] | IC50 [2] [nM] | IC50 [3] [nM] | melting point [°C]
4 | CCCCSCc1cc2c(cc1/C=C/c1ccc(C(=O)O)cc1)C(C)(C)CCC2(C)C [Compound 2, 4-[(E)-2-(3-Butylthiomethyl-5,5,8,8-tetramethyl-5,6,7,8-tetrahydro-naphthalen-2-yl)vinyl]benzoic acid] | 1000 | 320 | 190 | 
5 | CCC(C)CSCc1cc2c(cc1/C=C/c1ccc(C(=O)O)cc1)C(C)(C)CCC2(C)C (centres unmarked) [Compound 3] | 200 | 100 | 260 | 66.1 to 68.5
6 | CC1(C)CCC(C)(C)c2cc(Cn3cccc3)c(/C=C/c3ccc(C(=O)O)cc3)cc21 [Compound 7, 4-[(E)-2-(5,5,8,8-tetramethyl-3-pyrrol-1-ylmethyl-5,6,7,8-tetrahydro-naphthalen-2-yl)vinyl]benzoic acid] | 260 | 140 | 17 | 255.6 to 257.4
7 | CC1(C)CCC(C)(C)c2cc(CSCc3ccco3)c(/C=C/c3ccc(C(=O)O)cc3)cc21 [Compound 8] | 810 | 450 | 26 | 169.7 to 171
8 | COCCCc1cc2c(cc1/C=C/c1ccc(C(=O)O)cc1)C(C)(C)CCC2(C)C [Compound 11, 4-{(E)-2-[3-(3-methoxypropyl}-5,8,8-tetramethyl-5,6,7,8-tetrahydro-naphthalen-2-yl]vinyl}benzoic acid] | 1800 | 1400 | 210 | 164.7 to 166
9 | Cn1nnnc1SCc1cc2c(cc1/C=C/c1ccc(C(=O)O)cc1)C(C)(C)CCC2(C)C [Compound 25] | 190 | 100 | 230 | 
